In test [1] the test system is fibroblasts (fbs). The experiment in a line: Fluorescence labeling optimization of DOTAP concentration for liposome-cell fusion. It counts as cell-based. As to conditions: keto-LUVs with 0.5-5% DOTAP, 5% ketone; fbs 4 h; rhod-oxyamine 0.7 mM 2 h. Here is the method:
Cell-surface labeling. In an embodiment of the present application, oxime chemistry is used to tailor and fluorescently label cell surfaces via a novel liposome fusion strategy. As mentioned, cationic lipid, DOTAP, was incorporated within keto- and oxyamine-LUVs to initiate electrostatic destabilization and subsequent fusion to the cell membrane. As such, the minimum DOTAP concentration required to facilitate liposome-cell fusion was determined to be […] through fluorescence labeling optimization. Keto-LUVs were generated using DOTAP and POPC concentrations that ranged from 0.5% to 5% and 90% to 94.5%, respectively, while maintaining a 5-% ketone concentration. These liposomes were incubated with fibroblasts (fbs) for 4 h, conjugated with an oxyamine-tethered rhodamine (rhod-oxyamine, 8) (0.7 mM, 2 h), and the cell fluorescence intensities were then compared. […] The liposomes for liposome-cell fusion events were approximately ˜60 nm in diameter, similar to those used for the liposome-liposome fusion characterization.

The test system of test [2] is fibroblasts (fbs). The experiment in a line: Cell-surface engineering: fluorescent labeling of fbs by liposome fusion and oxime conjugation. It counts as cell-based, mouse. As to conditions: liposome fusion 2 h plus complementary oxime dye. The protocol: Two cell-surface engineering methods were employed to fluorescently label fbs. In this first method, a solution of oxyamine vc-LUVs (6, 3 mM) was incubated with a ketone-functionalized fluorescein (7, 0.15 mM, 1 eq, 2 h), forming fluorescently labeled liposomes. The liposomes were then added to fbs in culture for 2 h. After fusion, the cells were washed with PBS (3×2 mL), trypsinized (1 mL, 5 min, 37° C., 5% CO2), diluted with CBS-containing media (˜10^2/mL), and seeded to a glass substrate (1×1 cm^2, 2 h). The cells were then imaged under a fluorescence microscope with an exposure time of 1/1200 s. In the second method, a solution of keto-LUVs (5, 200 μL, 0.6 mM) was added to fbs in culture for 2 h, resulting in membrane fusion and subsequent display of ketones from the cell surface (9). Rhod-oxyamine (8, 100 μL, 0.7 mM in H2O) was then added the cells for 2 h. After oxime formation, the fbs were washed with PBS (3×2 mL), trypsinized (1 mL, 5 min, 37° C., 5% CO2), diluted with CBS-containing media (˜10^2/mL), and seeded to a glass substrate (1×1 cm^2, 2 h). The cells were then imaged under a fluorescence microscope with an exposure time of 1/1200 s (see FIG. 3).

The record followed here is patent US9080144B2, “Compositions and methods for promoting liposomal and cellular adhesion” (priority 2012, dated 2015).

The structures appear in SMILES notation. “Also recorded” adds a separate entry of the source.

Consider `CCCCCCCC/C=C\CCCCCCCC(=O)OCC(C[N+](C)(C)C)OC(=O)CCCCCCC/C=C\CCCCCCCC` (centres unmarked) [DOTAP, 1,2-dioleoyl-3-trimethylammonium-propane], for which the “minimum DOTAP concentration required to facilitate liposome-cell fusion” value in test [1] amounted to 2%. Turning to `CCN(CC)c1ccc2c(-c3ccc(S(=O)(=O)NCCCCNC(=O)CON)cc3S(=O)(=O)[O-])c3ccc(=[N+](CC)CC)cc-3oc2c1` [compound 8, 5-(N-(4-(2-(aminooxy)acetamido)butyl)sulfamoyl)-2-(6-(diethylamino)-3-(diethyliminio)-3H-xanthen-9-yl)benzenesulfonate], the “fluorescent labeling of fbs (microscopy)” value in test [2] is given as “fluorescence labeling of cells; also recorded: red fluorescent labeling of the cells”.
